The source of these data is patent US4977152A, “Novel tricyclic derivatives which are agonists of cholinergic receptors, and drugs in which they are present” (Societe Anonyme: Sanofi, priority 1986, dated 1990).

Test [1] addresses T1, M1-type muscarinic cholinergic receptor (Rattus norvegicus, UniProt P08482).
T1 sequence (P08482 1-460): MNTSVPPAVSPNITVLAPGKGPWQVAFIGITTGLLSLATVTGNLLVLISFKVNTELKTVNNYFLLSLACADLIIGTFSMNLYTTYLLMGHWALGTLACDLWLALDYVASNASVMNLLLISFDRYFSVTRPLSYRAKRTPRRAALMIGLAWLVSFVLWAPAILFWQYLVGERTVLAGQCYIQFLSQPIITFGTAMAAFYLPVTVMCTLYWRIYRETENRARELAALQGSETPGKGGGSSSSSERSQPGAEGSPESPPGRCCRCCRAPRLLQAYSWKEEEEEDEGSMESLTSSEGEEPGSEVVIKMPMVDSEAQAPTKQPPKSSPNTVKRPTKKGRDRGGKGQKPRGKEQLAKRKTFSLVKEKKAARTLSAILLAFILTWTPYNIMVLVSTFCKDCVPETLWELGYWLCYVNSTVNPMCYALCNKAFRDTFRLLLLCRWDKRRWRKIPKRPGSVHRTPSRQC
Nature of the test: Test for affinity for the M1-type muscarinic cholinergic receptor: displacement of [3H]pirenzepine on rat hippocampus homogenate. Format: binding. Conditions: for IC50: rat hippocampus homogenate, 1 nM [3H]PZ, 2 h at 4° C., pH 7.40; for r = (M2 /M1): ratio of IC50 M2 (3H-NMS, guinea-pig ileum) to IC50 M1 (3H-pirenzepine, rat hippocampus). The source says: (§1) The M1 -type receptors are concentrated in certain areas of the brain, such as the hippocampus, the cerebral cortex and the striatum, and also in the sympathetic ganglia. These binding sites can be selectively labeled with [^3 H]pirenzepine ([^3 H]PZ). The M2 -type receptors predominate in the heart and ileum and can be labeled with [^3 H]N-methylscopolamine ([^3 H]NMS). To determine the selectivity of our molecules towards the M1 and M2 sites, we studied their interaction in vitro with [^3 H]PZ and [^3 H]NMS bound with a high affinity to membranes of rat hippocampus and membranes of smooth muscle of guinea-pig ileum, respectively.
The interaction of the molecules with M1 -type muscarinic receptors was studied by in vitro measurement, on a homogenate of rat hippocampus, of the displacement of tritiated pirenzepine ([^3 H]PZ) from its specific binding sites. Aliquots (10 μl) of a 5% (w/v) homogenate of rat hippocampus in an Na2 HPO4 buffer (50 mM, pH 7.40) are incubated for 2 h at 4° C. in the presence of [^3 H]pZ ([…]; final concentration: 1 nM) and increasing concentrations of products to be studied. The final volume is 2 ml. The reaction is stopped by centrifugation for 10 min at 50,000 × g. After decantation and washing of the residues, the bound radioactivity is counted by liquid scintillation. The non-specific binding is determined in the presence of 10 μmol/l of atropine sulfate. The 50% inhibitory concentration (IC50) is determined graphically (Ref.: Watson J. D., Roeskoe W. R. and Yamamura H.1., Life Sci., 31, 2019-2029, 1982).
(§2) Table 4 indicates the affinities of the products of the invention for M1 and M2 receptors. The results are expressed as 50% inhibitory concentrations (IC50), i.e. the concentration (in μM) which causes a 50% displacement placement of the tritiated ligand bound to the membrane receptors. The IC50 for displacement of ^3 H-pirenzepine represents the affinity for the M1 receptor; the IC50 for displacement of 3H-NMS represents the affinity for the M2 receptor.
A general note: In a radioligand displacement assay an active substance lowers the binding of a labelled ligand.

Test [2] concerns the target T2, M2-type muscarinic cholinergic receptor (Cavia porcellus, UniProt H0VRN8).
T2 construct: on a homogenate of smooth muscle of guinea-pig ileum; from tissue; host or cells: guinea-pig ileum smooth muscle homogenate
T2 sequence (H0VRN8 1-466): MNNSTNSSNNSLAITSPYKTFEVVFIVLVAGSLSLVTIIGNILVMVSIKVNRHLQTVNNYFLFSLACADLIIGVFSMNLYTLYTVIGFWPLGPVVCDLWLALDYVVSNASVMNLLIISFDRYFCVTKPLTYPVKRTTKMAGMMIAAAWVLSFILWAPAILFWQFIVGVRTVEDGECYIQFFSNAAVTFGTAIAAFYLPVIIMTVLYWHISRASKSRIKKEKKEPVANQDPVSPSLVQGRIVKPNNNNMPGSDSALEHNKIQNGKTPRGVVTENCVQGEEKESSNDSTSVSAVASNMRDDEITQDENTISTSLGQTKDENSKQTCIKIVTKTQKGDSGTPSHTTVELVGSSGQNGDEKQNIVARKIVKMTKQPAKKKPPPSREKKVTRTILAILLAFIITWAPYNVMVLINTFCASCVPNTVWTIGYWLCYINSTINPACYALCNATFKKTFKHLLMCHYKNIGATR
Nature of the test: Test for affinity for the M2-type muscarinic cholinergic receptor: displacement of [3H]N-methylscopolamine on smooth muscle of guinea-pig ileum. It counts as binding. Conditions: guinea-pig ileum smooth muscle homogenate, 0.3 nM [3H]NMS, 20 min at 30° C., pH 7.5.
Excerpt: as §1
The interaction with M2 -type muscarinic receptors was studied by in vitro measurement, on a homogenate of smooth muscle of guinea-pig ileum, of the displacement of tritiated N-methylscopolamine ([^3 H]NMS) from its specific binding sites. Aliquots (50 μl) of a 0.625% (w/v) homogenate of smooth muscle of guinea-pig ileum in MEPES buffer (20 mM) containing NaCl (100 mM) and MgCl2 (10 mM) (final pH: 7.5) are incubated for 20 min at 30° C. in the presence of [^3 H]NMS ([…]; final concentration: 0.3 nM) and increasing concentrations of products to be tested. The final volume is 1 ml. The reaction is stopped by centrifugation for 5 min at 15,000 × g. The non-specific binding is determined in the presence of 10 μmol/l of atropine sulfate (Ref.: Hammer R., Berrie C. P., Birdsall N. I. M., Burgen A. S. V. and Hulme E. C., Nature, 283, 90-92, 1980; Hulme E. C., Birdsall N.1.M., Burgen A. S. V. and Mettha P., Mol. pharmacol., 14, 737-750, 1978).
as §2

The target of test [3] is T3, M1 central muscarinic cholinergic receptors (Mus musculus, UniProt P12657).
T3 construct: The intrastriatal injection of PZ into mice induces rotational behavior; from tissue; host or cells: right striatum of living female mice (Swiss, CD 1)
T3 sequence (P12657 1-460): T1 sequence (P08482 1-460) with S309P
Nature of the test: Antagonism of rotational behavior induced by intrastriatal injection of pirenzepine in mice. Format: in vivo, mice (female, Swiss, CD 1). As to conditions: ip, read-out: Pirenzepine antagonism ED50. Here is the method: Pirenzepine (PZ) is a specific antagonist of M1 central muscarinic cholinergic receptors. The intrastriatal injection of PZ into mice induces rotational behavior. The antagonism of this behavior by the products according to the invention was studied.
The products according to the invention are injected intraperitoneally (i.p.) after solubilization in distilled water or suspension in a 5% solution of gum arabic. The control animals receive an injection of the pure solvent under the same conditions.
The animals used are female mice (Swiss, CD 1, Charles River, France) with a body weight of between 25 and 30 grams.
Pirenzepine is dissolved in a phosphate buffer; the pH of the solution is 6.
The products to be studied or their solvents are injected intraperitoneally, in a volume of 0.4 ml per 20 g of body weight, 15 minutes before a direct injection of pirenzepine at a dose of […] into the right striatum of the mouse, according to the method described by p.
The number of contralateral rotations (rotations in the opposite direction to the side injected) was counted for three 2-minute periods after the injection of pirenzepine: minutes 2 to 4, 8 to 10 and 13 to 15. Each treatment includes 3 to 4 doses and 10 animals per dose. For each treatment, the total number of rotations and the percentage antagonism compared with the control group are calculated.

Where [4] appears, read: mice, i.p. 15 minutes before intrastriatal pirenzepine, 50% reduction in number of rotations.

Where a chain is given by its changes, count along the chain named. Counter-ions that a name gives are not always drawn. Like-named read-outs stand apart in the source and are kept apart here.

Turning to `CCN(CC)CCNc1cc2c(nn1)-c1cc(Cl)ccc1CCC2.Cl.Cl` [SR 95878 A, 10-Chloro-3-(2-diethylaminoethylamino)-6,7-dihydro-5H-benzocyclohepta[5,6-c]pyridazine dihydrochloride], in test [1], the IC50 was found to be 40 nM and the “r = (M2 /M1)” value is on record as 26. The compound also returned an IC50 in test [2] of 1100 nM. Besides, the ED50 in test [3] was found to be 2 mg/kg.
In the case of `CCN1CCCC1CNc1cc2c(nn1)-c1ccccc1CCC2` (stereo not drawn) [SR 95879 A, 3-[(1-Ethylpyrrolidin-2-yl)methylamino]-6,7-dihydro-5H-benzocyclohepta-5,6-c]pyridazine dihydrochloride], in test [1], the IC50 came out at 140 nM and the “r = (M2 /M1)” value turned out to be 7. The compound also came in with an IC50 in test [2] of 1000 nM. In addition, the ED50 in test [3] (setting [4]) was found to be 0.3 mg/kg.
Regarding `c1ccc2c(c1)CCCc1cc(NCCN3CCCC3)nnc1-2` [SR 95883 A], in test [1], the IC50 was determined as 130 nM and the “r = (M2 /M1)” value amounted to 35. The compound further had an IC50 in test [2] of 4500 nM. Further, the ED50 in test [3] (setting [4]) came out at 3 mg/kg.
Turning to `CCN(CC)CCNc1cc2c(nn1)-c1ccccc1CC2.Cl.Cl` [SR 96054 A, 3-(2-Diethylaminoethylamino)-5,6-dihydrobenzo[h]cinnoline dihydrochloride], the results for the IC50 in test [1] and in test [2] were 210 nM and 7500 nM, respectively. For the same compound, in test [1], the “r = (M2 /M1)” value is 36. In test [3], the median effective dose (ED50) was found to be 3 mg/kg.
As to `CCN(CC)CCNc1cc2ccc3ccccc3c2nn1.Cl.Cl` [SR 96055 A, 3-(2-Diethylaminoethylamino)benzo[h]cinnoline dihydrochloride], in test [1], the IC50 came out at 320 nM and the “r = (M2 /M1)” value is 53. In test [2], this compound came in with an IC50 of 17000 nM. In addition, the ED50 in test [3] amounted to 3 mg/kg.
As to `CN1CCC(Nc2cc3c(nn2)-c2ccccc2CCC3)CC1` [SR 96093 A, 3-(1-Methylpiperidin-4-yl)amino]-6,7-dihydro-5H-benzocyclohepta[5,6-c]pyridazine dihydrochloride], in test [1], the IC50 came out at 1200 nM and the “r = (M2 /M1)” value stood at 42. For the same compound, in test [2], the IC50 turned out to be 50000 nM. For the same compound, in test [3] (setting [4]), the ED50 came out at 15 mg/kg.

One may read the IC50 as the concentration that inhibits the measured activity by half. Low readings indicate greater potency in that assay, high ones weaker potency in that assay. As a reminder, the ED50 is the dose at which the effect has come halfway, by size or by number of responders.
